Results reported in patent US20050148495A1, “Methods and materials including for treating acne” (priority 2003, published 2005).
≈ marks a conversion by molar mass, not a printed value. Where two headings read alike, the source gives them in different places. Non-standard residues stand in square brackets, D forms with d. Residues, ends and D or L forms follow the SMILES beside them. d1Nal = N[C@H](Cc1cccc2ccccc12)C(=O)O

Assays:
P. avidum = format: cell-based, Propionibacterium avidum
Experimental: This example addresses studies relating to the antimicrobial activities of XMP.629. An in vitro assessment of antibiotic activity in XMP.629 and various known antibiotics against a representative panel of bacterial strains associated with acne was conducted. A broth dilution methodology was employed using guidelines established by National Committee for Clinical Laboratory Standards (NCCLS) for anaerobic organisms to establish an antibacterial profile for XMP.629. Assays to determine the minimal bactericidal concentrations (MBC) and minimal inhibitory concentration (MIC) were conducted for XMP.629 and other known antibiotics. Furthermore, test to determine post antibiotic effect (PAE) of XMP.629 were done.
Inoculum from a representative panel of bacterial strains associated with acne, such as P. acnes, P. avidum, P. granulosum, and Staphylococcus epidermis was prepared by suspending approximately 5-10 isolated bacterial colonies in pre-reduced MicroScan® Inoculum Water (Dade Behring, Deerfield, Ill.), and growing the bacterial suspension to log phase (approximately 48 hrs). An inoculum of between 1-5×10^6/mL was achieved by adding 100 μL of the suspension to 25 mL Brain Heart Infusion Broth (BHI) (Anaerobe Systems, Morgan Hill, Calif.).
A stock solution of XMP.629 dissolved in water at a concentration of 4.0 mg/mL was prepared. Dilute solutions of XMP.629 at concentrations ranging from about 1.25 to about 160 μg/mL were made in either water or formulation buffer (130 mM sodium chloride, 0.2% P103 (poloxamer 333), and 0.10% EDTA, pH 7.3). Aqueous stock solutions of clindamycin and erythromycin were prepared in water.
Each tube, containing a final volume of 1 mL, was mixed by vortexing. Control tubes containing only water or formulation buffer were prepared for each isolate. Initial growth controls were determined by removing 10 μL from the water control tube and diluting it by 100 fold. From this dilution, 10 μL was used for inoculation and for spreading over the surface onto Laked Blood Agar (LBA) (Anaerobe Systems, Morgan Hill, Calif.) plates. The tubes and plates were incubated in an anaerobic atmosphere at 37° C. for 48 h. After incubation, the tubes were mixed and 10 μL samples were removed from each tube for additional plating. These plates were then further incubated in an anaerobic atmosphere at 37° C. for 48-72 h and the resulting colonies were counted. After adjusting for the dilution factor, the lowest concentration of drug or combination of drugs reducing the inoculum by ≧99.9% was considered to be the minimum bactericidal concentration (MBC). MBC50 and 90 values represent where 50 and 90%, respectively, of the tested strain's MBC values are equal to or less than the indicated concentration. The lowest concentration of antibiotic(s) that inhibited visible growth in the culture tubes was considered to be the minimal inhibitory concentration (MIC).
For comparison, additional Propionibacterium strains, were tested.

S. aureus = experiment: Comparison of XMP.629 with standard topical agents (MIC90/MBC); format: cell-based, Staphylococcus aureus
Experimental: Control tubes containing only water or formulation buffer were prepared for each isolate. Initial growth controls were determined by removing 10 μL from the water control tube and diluting it by 100 fold. From this dilution, 10 μL was used for inoculation and for spreading over the surface onto Laked Blood Agar (LBA) (Anaerobe Systems, Morgan Hill, Calif.) plates. The tubes and plates were incubated in an anaerobic atmosphere at 37° C. for 48 h. […] MBC50 and 90 values represent where 50 and 90%, respectively, of the tested strain's MBC values are equal to or less than the indicated concentration.

P. acnes (ATCC 6919) = experiment: Post-antibiotic effect (PAE) study; format: cell-based, Propionibacterium acnes
Experimental: Post-antibiotic effect (PAE) studies with XMP.629 were conducted according to the procedure described by Craig, W. and S. Gudmundsson, “Postantibiotic Effect,” p. 296, In: Lorian, V. (ed.) Antibiotics in Laboratory Medicine, 4th ed. The post antibiotic effect measures the duration that an antibiotic affects target organisms after contact with the bacteria. In this study, an initial concentration of 5×10^6 CFU/mL P. acnes (ATCC 6919) and 1 μg/mL were incubated for 15, 30, or 60 minutes and then diluted 100-fold in BHI. The treated organisms and matched untreated controls were incubated for […]. Samples were taken and counted at hourly intervals. Recovery was determined by plate counts over time.
The postantibiotic value is the difference in time between the controls and treated cultures to increase 1 log10. Because of the long generation time (slow growth) of the organism, the recovery time was unusually long, >12 hours. This may have influenced the results as typical assays are completed within 5-6 hours.

E. coli 07:K1 = experiment: Acute peritonitis model (survival); format: in vivo, mice; details: 10 mg/kg intraperitoneally; 1.4×10^7 CFU E. coli 07:K1; seven days
Experimental: In additional studies in an acute peritonitis model, mice were challenged intraperitoneally with 1.4×10^7 CFU E. coli 07:K1 and treated intraperitoneally with XMP.629 at 1, 3, or 10 mg/kg or saline. Mice were observed twice daily and mortality was recorded for seven days. Statistical comparisons between the treatment groups and saline were performed using a Chi Square test. […] At 10 mg/kg, 87% protection was observed. In additional studies, XMP.629 was safely administered at a dose of 20 mg/kg intravenously.

[1] = tested on: marginal ear vein of rabbits; experiment: Intravenous efficacy tests in rabbits (local vein findings); format: in vivo, rabbit; details: multiple infusions, 1-20 mg/kg/day
Experimental: A series of efficacy studies with XMP.629 was conducted where slow IV push or short term (5 to 30 min) intravenous infusions were given through the marginal ear vein at 0.1 to 1.0 mg/mL to rabbits, some of whom were previously infected with Staphylococcus aureus, E. coli, or other bacteria, or Candida albicans. […] Due to the swelling, the veins could not be infused after two to five administrations of 1-20 mg/kg/day of XMP.629. […] Secondary changes in the surrounding tissue included edema, regional fibroplasia, acute hemorrhage, and regional hemorrhagic necrosis, as well as the presence of inflammation. These macroscopic changes were similar to the changes observed in the tail veins of rats and mice in other efficacy studies conducted.

[2] = RMA 8375, Formulation Buffer Solvent, Study 1
[3] = RMA 8375, Formulation Buffer Solvent, Study 2
[4] = RMA 8375, Water Solvent, Study 1
[5] = RMA 8375, Water Solvent, Study 2
[6] = RMA 8376, Formulation Buffer Solvent, Study 1
[7] = RMA 8376, Formulation Buffer Solvent, Study 2
[8] = RMA 8376, Water Solvent, Study 1
[9] = RMA 8376, Water Solvent, Study 2
[10] = RMA 9497, Formulation Buffer Solvent, Study 1
[11] = RMA 9497, Formulation Buffer Solvent, Study 2
[12] = RMA 9497, Water Solvent, Study 1
[13] = RMA 9497, Water Solvent, Study 2
[14] = RMA 13009, Formulation Buffer Solvent, Study 1
[15] = RMA 13009, Formulation Buffer Solvent, Study 2
[16] = RMA 13009, Water Solvent, Study 1
[17] = RMA 13009, Water Solvent, Study 2

CC(C)C[C@@H](NC(=O)[C@H](N)CCCCN)C(=O)N[C@H](Cc1ccccc1)C(=O)N[C@H](CCCNC(=N)N)C(=O)N[C@H](Cc1cccc2ccccc12)C(=O)N[C@H](CCC(N)=O)C(=O)N[C@H](C)C(=O)N[C@H](CCCCN)C(=O)N[C@H](Cc1cccc2ccccc12)C(N)=O [XMP.629, NH2-lys-leu-phe-arg-(3-(1-naphthyl)-ala)-gln-ala-lys-(3-(1-naphthyl)-ala)-CONH2] (H-[dK][dL][dF][dR][d1Nal][dQ][dA][dK][d1Nal]-NH2)
MBC50 (P. avidum; P. avidum, 4 strains): 1 µg/mL | MBC90 (P. avidum; P. avidum, 4 strains): 2 µg/mL | MBC Range (P. avidum; P. avidum, 4 strains, in µg/mL): 1-2 | MBC (P. avidum; [2]): 0.50 µg/mL | MIC (P. avidum; [2]): 0.25 µg/mL | MBC (P. avidum; [3]): 1 µg/mL | MIC (P. avidum; [3]): 0.25 µg/mL | MBC (P. avidum; [4]): 1 µg/mL | MIC (P. avidum; [4]): 0.5 µg/mL | MBC (P. avidum; [5]): 2 µg/mL | MIC (P. avidum; [5]): 1 µg/mL | MBC (P. avidum; [6]): 0.50 µg/mL | MIC (P. avidum; [6]): 0.5 µg/mL | MBC (P. avidum; [7]): 2 µg/mL | MIC (P. avidum; [7]): 0.25 µg/mL | MBC (P. avidum; [8]): 2 µg/mL | MIC (P. avidum; [8]): 1 µg/mL | MBC (P. avidum; [9]): 2 µg/mL | MIC (P. avidum; [9]): 1 µg/mL | MBC (P. avidum; [10]): 1 µg/mL | MIC (P. avidum; [10]): 0.25 µg/mL | MBC (P. avidum; [11]): 2 µg/mL | MIC (P. avidum; [11]): 0.25 µg/mL | MBC (P. avidum; [12]): 2 µg/mL | MIC (P. avidum; [12]): 2 µg/mL | MBC (P. avidum; [13]): 4 µg/mL | MIC (P. avidum; [13]): 1 µg/mL | MBC (P. avidum; [14]): 0.50 µg/mL | MIC (P. avidum; [14]): 0.25 µg/mL | MBC (P. avidum; [15]): 1 µg/mL | MIC (P. avidum; [15]): 0.25 µg/mL | MBC (P. avidum; [16]): 1 µg/mL | MIC (P. avidum; [16]): 1 µg/mL | MBC (P. avidum; [17]): 1 µg/mL | MIC (P. avidum; [17]): 1 µg/mL | MIC90, XMP.629 data reported as MBC values (S. aureus): 8 µg/mL (≈ 6.23 µM) | MIC90, XMP.629 data reported as MBC values (S. aureus; in FB (formulation buffer)): 0.06 µg/mL (≈ 0.0467 µM) | PAE value (P. acnes (ATCC 6919); 1 μg/mL, contact 30 or 60 minutes, accurate value could not be assigned): ≥ 12 h | recovery of affected cells (P. acnes (ATCC 6919); exposure to 0.5 to 2.0 MBCs for 15 minutes): did not recover, even after 24 hours of incubation | duration of continuing inhibitory, but not lethal, effect after contact (P. acnes (ATCC 6919); residence time greater than 15 minutes): more than 5 hours | protection (survival) (E. coli 07:K1): 87% | gross macroscopic changes at the infused vein [1]: swelling and hemorrhage into the perivascular space | Minimum Inhibitory Concentrations (Pseudomonas aeruginosa; Pseudomonas aeruginosa 9027): 8.00 µg/mL | Minimum Inhibitory Concentrations (Pseudomonas aeruginosa; Pseudomonas aeruginosa 19660): 8.00 µg/mL | Minimum Inhibitory Concentrations (Pseudomonas aeruginosa; Pseudomonas aeruginosa 27853): 4.00 µg/mL | Minimum Inhibitory Concentrations (Pseudomonas aeruginosa; Pseudomonas aeruginosa XS-65 (MDR)): 8.00 µg/mL
